Measurements published in ChEMBL document CHEMBL1201862, “PubChem BioAssay data set” (2004).
The source made the active and inactive calls.

Legend:
[1] = biological target: T1, Corticotropin-releasing factor receptor 2/Corticotropin-releasing factor-binding protein (Homo sapiens, UniProt P24387+Q13324); assay: activators of CRF receptor 2 with binding protein – uHTS hits, confirmation (AID 602473); type: functional; settings: read-out: EC50_Mean
T1 sequence (Q13324 whole entry): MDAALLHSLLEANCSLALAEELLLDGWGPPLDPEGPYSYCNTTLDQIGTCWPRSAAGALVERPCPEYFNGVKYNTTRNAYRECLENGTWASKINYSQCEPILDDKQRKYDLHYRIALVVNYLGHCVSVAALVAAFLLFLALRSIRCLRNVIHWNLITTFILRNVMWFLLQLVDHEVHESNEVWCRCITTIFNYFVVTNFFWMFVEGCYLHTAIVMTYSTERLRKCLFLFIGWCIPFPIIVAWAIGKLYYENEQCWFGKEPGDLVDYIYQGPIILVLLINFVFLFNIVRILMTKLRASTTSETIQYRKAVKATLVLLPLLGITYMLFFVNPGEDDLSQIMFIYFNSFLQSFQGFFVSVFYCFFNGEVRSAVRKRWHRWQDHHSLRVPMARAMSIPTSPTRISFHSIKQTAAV
T1 sequence (P24387 whole entry): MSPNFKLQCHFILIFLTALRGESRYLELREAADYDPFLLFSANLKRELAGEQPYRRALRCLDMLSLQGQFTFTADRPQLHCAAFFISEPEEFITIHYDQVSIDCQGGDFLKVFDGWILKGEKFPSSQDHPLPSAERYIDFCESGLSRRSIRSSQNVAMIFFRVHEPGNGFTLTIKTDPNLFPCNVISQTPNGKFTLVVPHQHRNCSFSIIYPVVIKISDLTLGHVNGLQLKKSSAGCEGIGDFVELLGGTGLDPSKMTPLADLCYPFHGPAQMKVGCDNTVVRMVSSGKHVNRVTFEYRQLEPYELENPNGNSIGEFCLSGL

[2] = biological target: T1, Corticotropin-releasing factor receptor 2/Corticotropin-releasing factor-binding protein; assay: Dose Response confirmation of uHTS hits for small molecule antagonists of the CRF-binding protein and CRF-R2 receptor complex.; type: functional; settings: read-out: IC50_Mean
[3] = growth suppression of beta-catenin-knockout colon cells, dose response, cell-based, HCT116, human colon tumor (AID 1045); type: functional;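 note: HCT116 colon tumor cells with beta catenin knocked out; cells exposed to compound for 60 hours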
Protein RecA = biological target: T2, Protein RecA (Mycobacterium tuberculosis, UniProt P9WHJ3); assay: Fluorescence Cell-Free Homogeneous Dose Retest to Identify Inhibitors of RecA-Intein Splicing Activity. [Related pubchem assays (depositor defined):AID2097, AID2223, AID489010, AID492950]; type: functional
T2 sequence (P9WHJ3 whole entry): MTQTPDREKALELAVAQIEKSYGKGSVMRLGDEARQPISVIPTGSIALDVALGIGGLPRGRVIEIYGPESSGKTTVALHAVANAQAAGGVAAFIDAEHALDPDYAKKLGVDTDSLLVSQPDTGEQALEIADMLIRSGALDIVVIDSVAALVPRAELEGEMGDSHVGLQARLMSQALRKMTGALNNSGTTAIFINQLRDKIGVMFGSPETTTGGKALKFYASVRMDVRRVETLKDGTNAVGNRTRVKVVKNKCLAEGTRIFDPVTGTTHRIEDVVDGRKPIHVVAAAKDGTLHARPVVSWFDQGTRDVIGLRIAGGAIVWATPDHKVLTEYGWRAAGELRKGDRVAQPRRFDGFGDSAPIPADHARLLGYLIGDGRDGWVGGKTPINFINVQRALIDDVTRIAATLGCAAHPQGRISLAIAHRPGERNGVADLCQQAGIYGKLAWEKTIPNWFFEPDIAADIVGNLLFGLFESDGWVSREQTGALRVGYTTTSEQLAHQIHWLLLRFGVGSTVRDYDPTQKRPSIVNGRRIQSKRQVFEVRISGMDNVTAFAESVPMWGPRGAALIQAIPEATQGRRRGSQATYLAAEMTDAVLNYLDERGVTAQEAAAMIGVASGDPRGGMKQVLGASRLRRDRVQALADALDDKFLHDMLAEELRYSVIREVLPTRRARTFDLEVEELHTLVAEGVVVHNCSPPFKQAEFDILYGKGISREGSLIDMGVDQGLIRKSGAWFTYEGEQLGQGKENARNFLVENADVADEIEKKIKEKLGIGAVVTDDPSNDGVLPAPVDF

[4] = biological target: T3, Replicative DNA helicase DnaB (Mycobacterium tuberculosis, UniProt P9WMR3); assay: DnaB intein splicing inhibitors, dose response, biochemical, cell-free fluorescence (AID 449749); type: functional
T3 sequence (P9WMR3 whole entry): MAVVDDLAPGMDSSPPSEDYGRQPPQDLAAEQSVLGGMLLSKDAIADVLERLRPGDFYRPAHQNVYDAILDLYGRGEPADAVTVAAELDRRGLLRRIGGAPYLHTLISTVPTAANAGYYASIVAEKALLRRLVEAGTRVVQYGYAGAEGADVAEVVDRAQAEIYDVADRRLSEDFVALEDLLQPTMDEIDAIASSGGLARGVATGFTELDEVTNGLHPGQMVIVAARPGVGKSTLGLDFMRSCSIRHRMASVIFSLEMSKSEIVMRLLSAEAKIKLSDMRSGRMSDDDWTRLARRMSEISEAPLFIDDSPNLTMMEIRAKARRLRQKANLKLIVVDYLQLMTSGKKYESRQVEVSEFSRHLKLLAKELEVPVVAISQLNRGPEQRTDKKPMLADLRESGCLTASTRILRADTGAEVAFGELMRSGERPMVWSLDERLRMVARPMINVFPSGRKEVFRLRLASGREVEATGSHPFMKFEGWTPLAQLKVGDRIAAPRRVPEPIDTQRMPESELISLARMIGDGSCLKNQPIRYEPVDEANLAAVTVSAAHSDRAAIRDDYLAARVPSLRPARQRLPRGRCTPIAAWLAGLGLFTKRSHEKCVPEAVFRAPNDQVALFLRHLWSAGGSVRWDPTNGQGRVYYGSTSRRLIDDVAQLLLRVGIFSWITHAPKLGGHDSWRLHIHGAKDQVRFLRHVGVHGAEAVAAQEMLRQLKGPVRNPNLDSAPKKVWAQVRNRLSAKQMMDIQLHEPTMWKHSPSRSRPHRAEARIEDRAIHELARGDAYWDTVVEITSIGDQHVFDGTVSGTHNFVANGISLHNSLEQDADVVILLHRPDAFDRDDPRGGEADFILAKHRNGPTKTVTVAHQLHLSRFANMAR

[5] = growth suppression of PTEN-null colon cells, dose response, cell-based, HCT116 PTEN knockout (AID 1047); type: functional;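 note: HCT116 colon tumor cells with PTEN knocked out; cells exposed to compound for 60 hours before readout; potency for loss of cell viability measured by luminescence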
Streptokinase A = biological target: T4, Streptokinase A (Streptococcus pyogenes serotype M1, UniProt P10520); assay: S. pyogenes streptokinase expression inhibitors, potency, dose response, plasminogen activation absorbance, OD405 (AID 1914); type: functional, Streptococcus pyogenes M1 GAS;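 note: secreted streptokinase activity via plasminogen activation per viability signal from cell pellet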
T4 sequence (P10520 whole entry): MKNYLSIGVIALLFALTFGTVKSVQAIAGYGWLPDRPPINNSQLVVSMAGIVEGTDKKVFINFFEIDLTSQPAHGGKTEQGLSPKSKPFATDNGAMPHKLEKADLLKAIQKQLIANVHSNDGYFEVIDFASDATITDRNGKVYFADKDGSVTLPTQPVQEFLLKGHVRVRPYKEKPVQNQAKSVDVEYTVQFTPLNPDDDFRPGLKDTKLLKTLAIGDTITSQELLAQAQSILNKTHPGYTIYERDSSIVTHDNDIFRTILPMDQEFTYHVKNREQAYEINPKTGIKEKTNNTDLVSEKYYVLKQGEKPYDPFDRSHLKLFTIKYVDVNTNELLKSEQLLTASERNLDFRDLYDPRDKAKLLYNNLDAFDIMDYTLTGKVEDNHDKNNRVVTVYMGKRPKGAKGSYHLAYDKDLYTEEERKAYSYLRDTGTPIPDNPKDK

[6] = biological target: T5, Heat shock factor protein 1 (Mus musculus, UniProt P38532); assay: HSF1 potentiators in luciferase reporter cells, confirmation, cell-based, NIH3T3, luminescence, dose retest (AID 435004); type: functional;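 note: stress induced by proteasome inhibitor MG132 added 30 min after compound; luciferase reporter driven by HSF1 response element in NIH3T3 cells; actives raise luminescence as potentiators of the MG132 stress response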
T5 sequence (P38532 whole entry): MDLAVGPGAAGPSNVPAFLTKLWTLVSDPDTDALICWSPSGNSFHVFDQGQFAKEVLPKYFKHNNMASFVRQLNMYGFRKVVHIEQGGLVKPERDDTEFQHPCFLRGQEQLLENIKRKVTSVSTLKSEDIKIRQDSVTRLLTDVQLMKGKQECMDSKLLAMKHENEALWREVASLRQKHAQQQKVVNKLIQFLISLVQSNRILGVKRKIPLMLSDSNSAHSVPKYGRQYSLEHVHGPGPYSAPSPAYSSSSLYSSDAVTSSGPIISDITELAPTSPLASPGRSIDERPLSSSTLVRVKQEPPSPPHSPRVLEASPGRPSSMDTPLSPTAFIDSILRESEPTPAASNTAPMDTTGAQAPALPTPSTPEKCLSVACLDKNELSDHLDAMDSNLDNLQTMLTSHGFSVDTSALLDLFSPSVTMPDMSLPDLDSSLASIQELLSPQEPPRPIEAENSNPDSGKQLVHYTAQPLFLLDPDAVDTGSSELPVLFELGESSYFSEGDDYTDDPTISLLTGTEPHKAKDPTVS

[7] = test system: Streptococcus sp. 'group A'; assay: growth inhibition of control SK(-) GAS strain, dose response, counter-screen for streptokinase expression inhibitor project, luminescence, kanamycin, BacTiterGlo, confirmation (AID 1900); type: functional, organism-based
Streptococcus = assay: Group A Streptococcus viability loss, dose response, counter-screen for streptokinase expression inhibitor project, luminescence, BacTiterGlo (AID 1915); type: functional, organism-based;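 note: potency for reduction of bacterial viability or growth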
[8] = NIH-3T3 fibroblast cytotoxicity, dose response, cytotoxicity control, cell-based, fluorescence, Alamar Blue, secondary assay (AID 2327); type: functional;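 note: NIH-3T3 mouse fibroblasts cultured with fluconazole at 8 µg/mL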
[9] = HEp-2 cell cytotoxicity, dose response, cytotoxicity control for RSV inhibitor project, HTS (AID 2410); type: functional; settings: human respiratory syncytial virus
Cytochrome P450 2C9 = Cytochrome P450 2C9 (Homo sapiens, UniProt P11712)
Sequence of Cytochrome P450 2C9 (P11712 whole entry): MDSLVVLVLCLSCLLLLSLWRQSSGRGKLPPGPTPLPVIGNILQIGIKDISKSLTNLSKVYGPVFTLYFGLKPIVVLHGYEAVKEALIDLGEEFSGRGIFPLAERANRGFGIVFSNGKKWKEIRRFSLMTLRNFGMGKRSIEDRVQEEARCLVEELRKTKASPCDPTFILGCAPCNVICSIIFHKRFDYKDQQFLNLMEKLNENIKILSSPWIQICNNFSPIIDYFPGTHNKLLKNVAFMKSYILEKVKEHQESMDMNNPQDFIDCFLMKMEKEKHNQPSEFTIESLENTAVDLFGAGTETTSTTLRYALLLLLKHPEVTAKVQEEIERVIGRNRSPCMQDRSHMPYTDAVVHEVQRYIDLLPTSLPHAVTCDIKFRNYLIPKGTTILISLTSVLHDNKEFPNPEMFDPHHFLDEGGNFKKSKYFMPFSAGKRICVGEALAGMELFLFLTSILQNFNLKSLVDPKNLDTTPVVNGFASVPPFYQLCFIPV

SMILES | EC50 [1] | IC50 [2] | also measured
Cc1sc2nc(CN(Cc3cccs3)C(=O)NC3CCCCC3)[nH]c(=O)c2c1C | > 53 µM (inactive) | 16.4 µM (active) | 
CN(C)C(=O)c1ccc2c(c1[N+](=O)[O-])C(=O)c1ccccc1C2=O |  |  | EC50 [3]: 105 µM (active); EC50 (Protein RecA): 0.558 µM (active); AC50 [4]: 57.9 µM (active); EC50 [5]: 87 µM (active)
COc1ccc(CCN=C(N)S)cc1OC | > 53 µM (inactive) | > 47.1 µM (inactive) | 
CCC1C(=NO)C(CC)C(c2ccccc2)NC1c1ccccc1 (stereo unspecified) |  |  | EC50 (Streptokinase A): 13.3 µM (active); EC50 [6]: > 260 µM (inactive); EC50 [7]: 4.07 µM (active); EC50 (Streptococcus): 11.8 µM (active)
Cc1ccccc1N=C1N=C(S)N(c2ccccc2)C12CCCCC2 | > 53 µM (inactive) | > 47.1 µM (inactive) | 
CC1CCC(NC(=O)c2ccc(/C=C3\Oc4ccccc4N(C)C3=O)cc2)CC1 (stereo unspecified) |  |  | EC50 [3]: 26.7 µM (active); EC50 [5]: 28 µM (active)
Cc1ccc(C(=O)C=Cc2cccc(C)c2)cc1 | > 53 µM (inactive) | > 47.1 µM (inactive) | 
CCCSC(=N)N/N=C/c1ccccc1O |  |  | EC50 [3]: 32.4 µM (active); EC50 [5]: 34.7 µM (active)
Cc1ccc(Cn2nnc3c(O)nc(C4CCN(S(=O)(=O)c5ccc(C)cc5)CC4)nc32)cc1 |  |  | EC50 [8]: > 150 µM (inactive); CC50 [9]: 13.6 µM (active)
COc1ccc2c(c1)c(C(=O)O)c(C)n2-c1ccc(Cl)cc1 | > 53 µM (inactive) | > 47.1 µM (inactive) | 
Cc1nn(C)c(C)c1NC(=O)CSc1nc(C2CC2)nc2c1cnn2-c1ccccc1 |  |  | EC50 [3]: 10.8 µM (active); EC50 [5]: 5.78 µM (active)
CCn1c(S)nnc1CCNC(=O)c1ccccc1Cl | > 53 µM (inactive) | > 47.1 µM (inactive) | AC50 (Cytochrome P450 2C9): 1.58 µM (inconclusive)
COc1ccc(NS(=O)(=O)c2ccc(N3CCOCC3)c(NC(=O)C(C)C)c2)cc1 | > 53 µM (inactive) | > 47.1 µM (inactive) | 
CCN(CC)C(=O)/C(=C/c1cn(S(=O)(=O)N(C)C)c2ccccc12)NC(=O)c1ccc(OC)cc1 | > 53 µM (inactive) | > 47.1 µM (inactive) | 
CC(=O)NC1=NN(C(C)=O)C(C)(c2ccccn2)S1 (stereo unspecified) | > 53 µM (inactive) | > 47.1 µM (inactive) | 
Clc1ccc(-n2nnnc2-c2cnc(-c3ccncc3)nc2-c2cccs2)cc1 |  |  | EC50 [3]: 21.1 µM (active); EC50 [5]: 16.9 µM (active)
COc1ccc(C(=O)ON=C(N)Cc2ccc(Cl)cc2)cc1OC |  |  | EC50 [3]: 19.1 µM (active); EC50 [5]: 21.6 µM (active)
O=C(O)CC(SCC(=O)Nc1ccc(Br)cc1)C(=O)O (stereo unspecified) | > 53 µM (inactive) | > 47.1 µM (inactive) | 
Cc1noc(NS(=O)(=O)c2ccc(NC(=O)CS(=O)(=O)c3ccccc3)cc2)c1C | > 53 µM (inactive) | > 47.1 µM (inactive) | 
C[C@H](CCC(=O)O)[C@H]1CC[C@H]2[C@@H]3CC[C@@H]4CC(=O)CC[C@]4(C)[C@H]3CC(=O)[C@]12C |  |  | EC50 [6]: > 260 µM (inactive)
COc1ccc(CCNC(=O)c2cccc3c2C(=O)N(C2CCCCC2)C3)cc1OC | > 53 µM (inactive) | 5.54 µM (active) | 
